The values that follow come from patent US20110218210A1, “COMPOUNDS FOR TREATING ABNORMAL CELLULAR PROLIFERATION” (priority 2007, published 2011).

Like-named read-outs stand apart in the source and are kept apart here.

The test system of series [1] is leukemic stem cell clone ABM42 C31. Kind of series: MTS viability assay, murine leukemic stem cell line. The class given is cell-based. The settings on record: serial two-fold dilutions starting from 10 μM, 24 h, FIG. 1. How it is done:
(§1) Leukemic stem cell lines and normal hematopoetic stem cell lines are separately maintained in cultures as described above. For viability assays, the cell lines are passed 24-36 hours prior to use in the assay, in order to test for sensitivity to specific drugs with cells in log-phase growth. Cells are plated in 96-well flat bottom plates (Greiner, Switzerland), at a concentration of 10^4 cells for the leukemic stem cell lines and normal hematopoietic stem cell lines, or 10^5 for the primary human fetal cord blood cells. Cells are plated in a final volume of 200 μl containing RPMI-1640 growth medium, supplemented as described above. Cells are either plated in medium alone, or medium containing a drug of interest. All drugs are tested in 11 different concentrations in order to derive sensitivity curves. The individual conditions were set up in triplicate wells, and at least three independent assays are performed to validate a specific observation.
(§2) The cells are cultured with the specific drug concentration for 24 hours at 37° C. in a 5% CO2 atmosphere. After culturing the cells under the experimental conditions for 23 hours, the wells are supplemented with 10 μl of the CellTiter 96 Aqueous Non-radioactive Cell Proliferation MTS reagent (Promega, Madison Wis.), and incubated in a 37° C. incubator (5% CO2) for 60 minutes. All plates are analyzed using a plate reader (Molecular Devices) using a filter set for O.D. 405. All values are used to derive standard errors, and compared among the different independent assays.
(§3) These compounds are screened for the ability to inhibit leukemic stem cell viability but not affect normal hematopoietic stem cells by incubating the compounds with cells using serial two-fold dilutions starting from 10 μM stocks.

Series [2] relates to normal murine hematopoietic stem cell line "BL/6 BM". Kind of series: MTS viability assay, normal murine hematopoietic stem cell line. The settings on record: serial two-fold dilutions starting from 10 μM, 24 h, FIG. 1. The class given is cell-based. How it is done:
as §1, §2, §3

The subject of series [3] is leukemic stem cells. In words: Flow cytometric analysis of apoptosis induction (7AAD). The settings on record: 10 μM; 24 h; versus normal murine hematopoietic stem cell lines; FIG. 2. The class given is cell-based. The method, then:
For analysis of apoptosis in leukemic stem cells or in normal hematopoietic stem cell lines, cells are cultured (in triplicate) with the specific drug concentration for 24 hours at 37° C. in a 5% CO2 atmosphere. Cell suspensions obtained from cultured cells are washed twice in FACS buffer, incubated for 20 minutes with 4 μM 7-aminoactinomycin-D (7AAD, Calbiochem), and washed with FACS buffer. Stained cells are resuspended in PBS and analyzed immediately on a flow cytometer.
4-Amino-7-[(2R,3S,4S,5R)-3,4-dihydroxy-5-(hydroxymethyl)oxolan-2-yl]-6-hydrazinylpyrrolo[5,4-d]pyrimidine-5-carboxamide, 2-[(2-chloro-4-nitrophenanthridin-6-yl)amino]ethanol, and 5-(anthracen-1-ylmethylidene)-2-sulfanylidene-1,3diazinane-4,6-dione preferentially kill murine leukemic stem cell viability vs. normal murine hematopoietic stem cell line. These compounds are screened to determine whether the effect of the compounds on reduced viability was due to inhibiting proliferation, or direct killing through apoptosis. The cells are analyzed by flow cytometric analysis for the exclusion of 7-aminoactinomycin-D (7AAD). At a concentration of 10 μM, cells are incubated in a 5% CO2 atmosphere for 24 h. After two washes in 1×PBS the cells are incubated with 4 μM 7-aminoactinomycin-D (7AAD) for 20 min.

In series [4] the test system is leukemic cell line (U937). Kind of series: MTS viability assay, human leukemic cell line. The series is classed as cell-based. The settings on record: serial two-fold dilutions beginning with 10 μM, 24 h, FIG. 3. The method, then:
as §1, §2
These compounds are incubated with cells using serial two-fold dilutions beginning with 10 μM.

Series [5] has as its system primary unmanipulated fetal cord blood cells. Kind of series: MTS viability assay, primary fetal cord blood cells. The series is classed as cell-based, human. The settings on record: at the drug concentrations tested (two-fold dilutions from 10 μM), 24 h, FIG. 4. How it is done: as §1
The cells are cultured with the specific drug concentration for 24 hours at 37° C. in a 5% CO2 atmosphere. […] All plates are analyzed using a plate reader (Molecular Devices) using a filter set for O.D. 405. […]

The subject of series [6] is ABM 42 C31 leukemic stem cells. Kind of series: Therapeutic trial: survival of mice transplanted with leukemic stem cells (pre-clinical model of AML). The series is classed as in vivo. The settings on record: 7 daily injections of 250 ul of 10 uM solution, intravenously, from clinical signs (about 15 d post-transplant); FIG. 5. The text has this:
Groups of 3-5 mice are utilized for each of the experimental protocols. Transplantation of tumors is done by injecting 10^3 cells intravenously into cohorts of sub-lethally irradiated (450R)C57/BL6/Rag −/− mice ranging in age from 4-6 weeks. The mice are monitored daily for clinical signs of disease. These clinical signs included externally evident splenomegaly, a hunched posture and reduce mobility, labored breathing, dehydration, scruffy fur and an ascending paralysis in a minority of cases. […] The mice then receive daily injections of the indicated agents for 7 days. Mice are held indefinitely to ascertain rates of survival.
Into cohorts of sublethally irradiated mice are transplanted 10^3 ABM 42 C31 leukemic stem cells. Treatment of the mice when they develop clinical signs of disease (hunched posture, rapid breathing, scruffled fur at approximately 15d post-transplant). Mice receive 7 daily injections of 250 ul XPBS solutions containing 10 uM concentrations of 4-Amino-7-[(2R,3S,4S,5R)-3,4-dihydroxy-5-(hydroxymethyl)oxolan-2-yl]-6-hydrazinylpyrrolo[5,4-d]pyrimidine-5-carboxamide, 2-[(2-chloro-4-nitrophenanthridin-6-yl)amino]ethanol, and 5-(anthracen-1-ylmethylidene)-2-sulfanylidene-1,3diazinane-4,6-dione. After the 7th day the mice are monitored for survival. FIG. 5 illustrates that administration of the compounds delay mortality in a pre-clinical model of AML disease.

The format of series [7] is in vivo. The settings on record: immune deficient mice reconstituted with murine hematopoetic stem cell lines; 7 daily injections of 1 mM concentrations. The method, then:
Immune deficient mice that are reconstituted with the murine hematopoetic stem cell lines are injected with 10,000× the effective in vitro concentration of a drug. Briefly, mice are given 7 daily injections of 1 mM concentrations of one of 4-Amino-7-[(2R,3S,4S,5R)-3,4-dihydroxy-5-(hydroxymethyl)oxolan-2-yl]-6-hydrazinylpyrrolo[5,4-d]pyrimidine-5-carboxamide, 2-[(2-chloro-4-nitrophenanthridin-6-yl)amino]ethanol, and 5-(anthracen-1-ylmethylidene)-2-sulfanylidene-1,3diazinane-4,6-dione. After the 7th day the mice are monitored for overt side-effects and survival.

A short description of series [8]: Bone marrow toxicity in mice (FIG. 17). The settings on record: compared to mice treated with methotrexate (MTX).
For series [9], the system named is leukemic stem cells. In words: Killing of leukemic stem cells (FIG. 6). The class given is cell-based.
Series [10] has as its system normal hematopoietic stem cells. Kind of series: Effect on normal hematopoietic stem cells (FIG. 6). The class given is cell-based.
For series [11] the following is noted: mouse, in vivo.

For `O=C1NC(=S)NC(=O)C1=Cc1cccc2cc3ccccc3cc12` [5-(anthracen-1-ylmethylidene)-2-sulfanylidene-1,3diazinane-4,6-dione], the “viability of leukemic stem cells” value in series [1] is reported as “preferentially inhibited viability”. The “viability of normal murine hematopoietic stem cell line” value in series [2] is “but not the normal murine hematopoietic stem cell line”. The “apoptosis induction (7AAD positive/GFP negative)” value in the series with leukemic stem cells [3] was “induce apoptosis preferentially in leukemic stem cells”. The “viability of human leukemic cell lines” value in series [4] is “preferentially inhibited viability of the leukemic cell lines”. Moreover, the “viability of primary unmanipulated fetal cord blood cultures” value in [5] is given as “no decrease in viability”. In addition, the “survival of mice transplanted with leukemic stem cells” value (from here on “survival of mice transplanted”) in [6] is “increase survival”. Also, the mortality result in [7] was “none of the mice died”. In addition, the bone marrow toxicity result in series [8] is given as “less bone marrow toxicity”.

For `CN(Cc1cnc2nc(N)nc(N)c2n1)c1ccc(C(=O)N[C@@H](CCC(=O)O)C(=O)O)cc1` [methotrexate], the “effect on leukemic stem cells” value with leukemic stem cells [9] is “killed”. Moreover, in series [10], the “effect on normal hematopoietic stem cells” value is recorded as “killed”.

For the molecule `O=[N+]([O-])c1cc(Cl)cc2c1nc(NCCO)c1ccccc12` [2-[(2-chloro-4-nitrophenanthridin-6-yl)amino]ethanol], the “viability of leukemic stem cells” value in [1] is given as “preferentially inhibited viability”. The “viability of normal murine hematopoietic stem cell line” value in [2] is listed as “but not the normal murine hematopoietic stem cell line”. Besides, the “apoptosis induction (7AAD positive/GFP negative)” value with leukemic stem cells [3] is on record as “induce apoptosis preferentially in leukemic stem cells”. Also, the “viability of human leukemic cell lines” value in series [4] was “preferentially inhibited viability of the leukemic cell lines”. Besides, the “survival of mice transplanted” value in series [6] was “increase survival”. The mortality result in series [7] was “none of the mice died”. Moreover, the bone marrow toxicity result in series [11] was “less bone marrow toxicity”.

As to `NNc1c(C(N)=O)c2c(N)ncnc2n1[C@@H]1O[C@H](CO)[C@@H](O)[C@@H]1O` [4-amino-7-[(2R,3S,4S,5R)-3,4-dihydroxy-5-(hydroxymethyl)oxolan-2-yl]-6-hydrazinylpyrrolo[5,4-d]pyrimidine-5-carboxamide], in series [1], the “viability of leukemic stem cells” value is “preferentially inhibited viability”. The “viability of normal murine hematopoietic stem cell line” value in [2] was “but not the normal murine hematopoietic stem cell line”. In addition, the “apoptosis induction (7AAD positive/GFP negative)” value in the series with leukemic stem cells [3] is on record as “induce apoptosis preferentially in leukemic stem cells”. Further, in series [4], the “viability of human leukemic cell lines” value is reported as “preferentially inhibited viability of the leukemic cell lines”. The “survival of mice transplanted” value in series [6] is listed as “increase survival”. Besides, the mortality result in series [7] was “none of the mice died”. The bone marrow toxicity result in series [8] is on record as “less bone marrow toxicity”.
